Data as given in PubChem BioAssay AID588659 (The Scripps Research Institute Molecular Screening Center, 2011).
Active and inactive are the calls of the source.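 The calls were made as follows: active = change in p38 protein level versus solvent-only treated cells of at least 30%, down or up; inactive = change under 30% either way.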

What was measured:
[1] = molecular target: Mitogen-activated protein kinase 14 (Homo sapiens) (UniProt Q16539); assay: total p38 protein level change, either direction, late-stage follow-up, counter-screen for KLF5 inhibitor project, HT29 cells, chemiluminescent western blot, powder samples (AID 588659); conditions: HT29 cells, p38 western blot, 24 h; at 10 µM; stronger effect = higher value
Mitogen-activated protein kinase 14 (Homo sapiens), sequence (Q16539 whole entry, looked up): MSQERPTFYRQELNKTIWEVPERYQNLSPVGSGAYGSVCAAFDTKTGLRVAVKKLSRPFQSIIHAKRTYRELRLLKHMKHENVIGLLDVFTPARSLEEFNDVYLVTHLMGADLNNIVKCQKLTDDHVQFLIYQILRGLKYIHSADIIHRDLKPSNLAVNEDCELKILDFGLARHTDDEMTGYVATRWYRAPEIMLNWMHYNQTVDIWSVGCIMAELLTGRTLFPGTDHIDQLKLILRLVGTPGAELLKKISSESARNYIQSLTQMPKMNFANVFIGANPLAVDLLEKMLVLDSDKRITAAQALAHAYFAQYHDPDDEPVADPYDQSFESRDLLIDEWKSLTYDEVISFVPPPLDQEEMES

[2] = test system: HT29 cells, p38 western blot, 24 h; assay: as above; conditions: measured here: p38 band fold change vs DMSO; at 10 µM

inhibition [1]	Compound	fold change [2]
14.3% (inactive)	CN(C(=O)COC(=O)/C=C/c1cccc([N+](=O)[O-])c1)C1CCS(=O)(=O)C1 (centres undefined)	–
-2.37% (inactive)	CN(C(=O)CNC(=O)/C=C/c1cccc(Cl)c1)C1CCS(=O)(=O)C1 (centres undefined)	1.02
10.2% (inactive)	CN(C(=O)CNC(=O)/C=C/c1cccc(Cl)c1)C1CCS(=O)(=O)CC1	–
